Experimental data taken from patent publication US4405643A, “Treatment of acute pulmonary edema with arginine esters” (Italfarmaco S.p.A., priority 1979, dated 1983).
Counter-ions that a name gives are not always drawn.

How the values were obtained:
[1] = Protection against pulmonary edema (adrenaline-induced acute edema of the lungs); type: in vivo, male albino rats of Wistar type; details: parenteral, 15 min before adrenaline
Protocol: The method of A. M. Rothschild and A. Castania (Arch. Pharmacol., 295, 177 (1976)), has been used to develop the acute edema in the lungs and substances of known therapeutic activity have been used for comparison purpose.
For the test, male albino rats of Wistar type of average weight 250-350 grams, have been used for the test. The rats were stabilized for a period of ten days at a temperature of 21°±1° C., under conditions of controlled diet and water "ad libitum". Prior to the test, the animals were divided into groups of ten for the purpose of achieving good randomization. Each dose was tried on three groups of animals. The animals were anesthetized with pentobarbital in a dose of 30 mg/kg at the beginning of the test. After the animals were in complete narcosis, the following substances were administered by the parenteral route:
1. to the animals as controls, physiological saline solution in the amount of 1 ml/kg,
2. to the animals in the test, a solution of the substance being tested in physiological saline solution in the amount of 1 ml/kg in the doses reported hereinbelow in the table.
After a period of 15 minutes, for the purpose of determining the protective activity of the substances, adrenaline was administered in the amount of 16 γ/kg by the endovenous route and in physiological saline solution, for the purpose of causing acute edema.
After five minutes, the animals were killed by removal of the head, the lungs were removed and the weight of the lungs were determined. The results of the test are reported in Table 1 hereinbelow, together with the concentration of the substances and the relative inhibition of edema in percent.

[2] = Protection against shock caused by endotoxins (lipopolysaccharide B from S. Enteritidis); type: in vivo, male rats of Wistar type; details: parenteral, 1 h before endotoxin, after 24 h
Description: Endotoxin-induced shock has been produced according to the method reported by A. Bertelli and L. Donati, in the publication "The Influence of Some Enzymes and Enzymes Inhibitors in Shock", published in "SHOCK Biochemical,Pharmaceutical and Clinical Aspects"; A. Bertelli and N. Back Editors, Advances in Experimental Medicine and Biology; Volume 9, Plenum Press New York - London 1970, page 215. By way of comparison, there has been used a substance of well known therapeutical activity, specifically aprotinine, the commercial products marketed by Farbenfabriken Bayer, under the name "Trasylol". Male rats of Wistar type of 120 grams by weight ±10 have been used. The rats were previously stabilized for a period of ten days at a temperature of 21°±1° C. under a controlled diet and water "ad libitum". Twenty-four hours prior to the test, the animals were divided in groups of ten for the purpose of achieving randomization. Every single dose has been tried on six groups of animals.
Lipopolysaccharide B from S. Enteritidis (Difco Labs.) was used as the endotoxin. This substance was administered in the dose of 10 mg/kg by the endoperitoneal route, one hour after administration of the substance being administered by the parenteral route or in the form of a physiological solution in equal volume per kilogram to the animals being used as control.
The mortality in percent was determined in the animals being tested as compared with the controls after twenty-four hours.

[3] = tested on: Fibrin Degradation Products; experiment: Inhibition of hyperfibrinolysis caused by urokinase (F.D.P., staphylococcal clumping test); type: in vivo, Wistar rats; details: parenteral, 30 min before urokinase 2500 U.I/rat
Protocol: The induction of hyperfibrinolysis state is caused by administration of urokinase. The determination of the inhibition is carried out by determination of the F.D.P. value, that is Fibrin Degradation Products, according to the procedure of J. Hawiger et al, J. Lab. Clin. Med. 75, 93 (1970), by means of the staphylococcal clumping test (Boehringer Mannheim GmbH test).
There are used Wistar rats of 300 grams ±10 by weight previously stabilized for a period of ten days at a temperature of 21°±1° C., under conditions of controlled diet and water "ad libitum". Twenty-four hours prior to the beginning of the experiment, the animals are divided in groups of ten for the purpose of achieving randomization. Each individual dose is tried on three groups of animals.
At the beginning of the test, zero time, the compounds being tested are administered through the parenteral route. In the case of the control animals, at the same time an equal volume of a physiological saline solution is administered except that some blood is removed by means of a cardiac puncture, for the purpose of determining the basal fibrinolytic activity. After 30 minutes, human urokinase (the composition marketed by Ukidan-Serono) is administered intravenously in the amount of 2500 U.I/rat. After an additional period of ten minutes, blood is removed by means of a cardiac puncture for the final determination of F.D.P., a determination which is expressed in […].

[4] = Protection against anaphylactic shock (horse serum); type: in vivo, male albino guinea pigs; details: parenteral, with horse serum challenge, after 12 h
Protocol: The anaphylactic shock has been induced according to the method of S. M. Feinberg, M. Pharmacol. Exp. Therapeut., 99, 195 (1950). There have been used male albino guinea pigs of average weight, 350±20 grams previously stabilized for a period of ten days at a temperature of 21°±1° C., under conditions of controlled diet and water "ad libitum". Three days before the beginning of the experiment, the animals are divided in groups of ten for the purpose of achieving good randomization. Each single dose has been tried on three groups of animals.
The sensitization has been carried out by administration of 1 ml/guinea pig through the endovenous route of horse serum, (whole serum, not treated with preservatives) diluted 1:10 in physiological saline solution. After 14 days, the solutions of the substances being tested and the samples of physiological solutions for use with the controls are administered through the parenteral route. Simultaneously, 1 ml/guinea pig of horse serum, undiluted is administered, this substance being used as the agent which prompts the anaphylaxis. The percentage of mortality is determined after 12 hours.

| Compound | % INHIBITION OF EDEMA ([1]; dose 1 mg/kg) [%] | % INHIBITION OF EDEMA ([1]; dose 2.5 mg/kg) [%] | % INHIBITION OF EDEMA ([1]; dose 5 mg/kg) [%] | % INHIBITION OF EDEMA ([1]; dose 10 mg/kg) [%] | % INHIBITION OF EDEMA ([1]; dose 20 mg/kg) [%] | % MORTALITY ([2]; dose 5 mg/kg) [%] | % MORTALITY ([2]; dose 10 mg/kg) [%] | % MORTALITY ([2]; dose 20 mg/kg) [%] | % MORTALITY ([2]; dose 50 mg/kg) [%] | F.D.P. ([3]; dose 5 mg/kg) [milliliters] | F.D.P. ([3]; dose 10 mg/kg) [milliliters] | F.D.P. ([3]; dose 20 mg/kg) [milliliters] | % MORTALITY ([4]; dose 10 mg/kg) [%] | % MORTALITY ([4]; dose 20 mg/kg) [%] | % MORTALITY ([4]; dose 50 mg/kg) [%] | other results |
| --- | --- | --- | --- | --- | --- | --- | --- | --- | --- | --- | --- | --- | --- | --- | --- | --- |
| CCO [Ethanol] |  |  |  |  |  |  |  |  |  |  |  |  |  |  |  | % INHIBITION OF EDEMA ([1]; dose 0.08 mg/kg): 7%; % INHIBITION OF EDEMA ([1]; dose 0.8 mg/kg): 12%; % INHIBITION OF EDEMA ([1]; dose 2 mg/kg): 15%; % INHIBITION OF EDEMA ([1]; dose 4 mg/kg): 14.7%; % INHIBITION OF EDEMA ([1]; dose 8 mg/kg): 16%; % INHIBITION OF EDEMA ([1]; dose 16 mg/kg): 15.9%; % MORTALITY ([2]; dose 2 mg/kg): 67%; % MORTALITY ([2]; dose 4 mg/kg): 69%; % MORTALITY ([2]; dose 8 mg/kg): 73%; F.D.P. ([3]; dose 2 mg/kg): 3.06 milliliters; F.D.P. ([3]; dose 4 mg/kg): 2.95 milliliters; F.D.P. ([3]; dose 8 mg/kg): 3.11 milliliters; % MORTALITY ([4]; dose 2 mg/kg): 76.4%; % MORTALITY ([4]; dose 4 mg/kg): 74%; % MORTALITY ([4]; dose 8 mg/kg): 76.5% |
| CCOC(=O)[C@H](N)CCCNC(=N)N [D-A.E., DArginine ethyl ester hydrochloride] | 4.2 | 7 | 5.3 | 6 | 2.5 | 72 | 67 | 69.3 | 71 | 3.20 | 3.16 | 3.19 | 76.7 | 79.4 | 81.0 | % INHIBITION OF EDEMA ([1]; dose 0.1 mg/kg): 7%; % INHIBITION OF EDEMA ([1]; dose 0.25 mg/kg): 11%; % INHIBITION OF EDEMA ([1]; dose 0.5 mg/kg): 3% |
| CC(=O)Oc1ccccc1C(=O)O [Aspirin] | 32.2 | 36.9 | 48.2 | 54.3 | 19.6 |  |  |  |  |  |  |  |  |  |  |  |
| NC[C@H]1CC[C@H](C(=O)O)CC1 [Tranexamic Acid, trans4-(aminomethyl)cyclohexancarboxylic acid] |  |  |  |  |  |  |  |  |  | 0.58 | 0.39 | 0.33 |  |  |  |  |
| CO [Methanol] |  |  |  |  |  |  |  |  |  |  |  |  |  |  |  | % INHIBITION OF EDEMA ([1]; dose 0.08 mg/kg): 2.3%; % INHIBITION OF EDEMA ([1]; dose 0.8 mg/kg): 5%; % INHIBITION OF EDEMA ([1]; dose 2 mg/kg): 12%; % INHIBITION OF EDEMA ([1]; dose 4 mg/kg): 6%; % INHIBITION OF EDEMA ([1]; dose 8 mg/kg): 15%; % INHIBITION OF EDEMA ([1]; dose 16 mg/kg): 15%; % MORTALITY ([2]; dose 2 mg/kg): 76%; % MORTALITY ([2]; dose 4 mg/kg): 72%; % MORTALITY ([2]; dose 8 mg/kg): 74%; F.D.P. ([3]; dose 2 mg/kg): 3.02 milliliters; F.D.P. ([3]; dose 4 mg/kg): 3.12 milliliters; F.D.P. ([3]; dose 8 mg/kg): 3.27 milliliters; % MORTALITY ([4]; dose 2 mg/kg): 76.6%; % MORTALITY ([4]; dose 4 mg/kg): 79.4%; % MORTALITY ([4]; dose 8 mg/kg): 81% |
| Aprotinin |  |  |  |  |  |  |  |  |  |  |  |  |  |  |  | % INHIBITION OF EDEMA ([1]; dose 30 U.I.K./kg): 17.3%; % INHIBITION OF EDEMA ([1]; dose 100 U.I.K./kg): 36.5%; % INHIBITION OF EDEMA ([1]; dose 300 U.I.K./kg): 54.5%; % INHIBITION OF EDEMA ([1]; dose 1000 U.I.K./kg): 42.7%; % MORTALITY ([2]; dose 1000 U.I.K./kg): 50.0%; % MORTALITY ([2]; dose 3000 U.I.K./kg): 65.0%; % MORTALITY ([2]; dose 10000 U.I.K./kg): 65.0%; % MORTALITY ([2]; dose 100000 U.I.K./kg): 93.3%; F.D.P. ([3]; dose 1000 U.I.K./kg): 0.34 milliliters; F.D.P. ([3]; dose 3000 U.I.K./kg): 0.29 milliliters; F.D.P. ([3]; dose 10000 U.I.K./kg): 0.30 milliliters; % MORTALITY ([4]; dose 3000 U.I.K./kg): 40%; % MORTALITY ([4]; dose 10000 U.I.K./kg): 55%; % MORTALITY ([4]; dose 100000 U.I.K./kg): 80% |
| COC(=O)[C@H](N)CCCNC(=N)N [D-A.M., DArginine methyl ester hydrochloride] | 16.8 | 11.7 | 15.4 | 4.4 | 6.4 | 71.2 | 68.5 | 69 | 73 | 3.10 | 3.03 | 3.16 | 78.8 | 81.0 | 76.3 |  |
| CCOC(=O)[C@@H](N)CCCNC(=N)N [L-A.E., LArginine ethyl ester hydrochloride] | 55.7 | 47.9 | 41.0 | 38.9 | 39.7 | 51.3 | 48.2 | 37.5 | 25.0 | 0.50 | 0.33 | 0.27 | 35 | 23 | 9.5 | % INHIBITION OF EDEMA ([1]; dose 0.1 mg/kg): 3.4%; % INHIBITION OF EDEMA ([1]; dose 0.25 mg/kg): 32.2%; % INHIBITION OF EDEMA ([1]; dose 0.5 mg/kg): 33.3% |
